Data from patent publication US11739077B2, “Small molecule inhibitors of ubiquitin specific protease 1 (USP1) and uses thereof” (Insilico Medicine IP Limited, priority 2021, dated 2023).

Legend:
MDA-MB-436 cells = test: MDA-MB-436 breast cancer cell proliferation assay (CellTiter-Glo); format: cell-based; details: 7 days
Method: MDA-MB-436 cells were grown in Leibovitz's L-15 medium with 10 ug/ml insulin, 16 ug/ml glutathione, 10% FBS. Cells were passaged at subconfluence after trypsinization and maintained in incubators at 37° C. in a humidified atmosphere with 5% CO2.
Cell proliferation was determined using CellTiter-Glo® Luminescent Cell Viability Assay (Promega, #G7573). MDA-MB-436 cells were seeded in 384-well plates and allowed to attach for 24 h. Compounds were added into 384-well plate by ECHO, and incubated at 37° C. in a humidified atmosphere with 5% CO2. After 7 days, CellTiter-Glo was added into 384 well plates, contents were mixed on an orbital shaker at […] for 2 min before centrifuging the plate for 2 min at 1000 rpm. After incubation at RT for 30 min, luminescence was read on envision.

[1] = target: Human recombinant USP1/UAF1 (Homo sapiens (Human), UniProt O94782); test: Enzymatic assay, USP1/UAF1 with Ubiquitin Rhodamine 110; format: biochemical; details: 2 nM USP1/UAF1, 500 nM Ubiquitin Rhodamine 110, 15 minutes preincubation at RT
Method: Human recombinant USP1/UAF1 expressed in baculovirus infected Sf21 cells were used (R&D, E-568-050). Test compound and/or vehicle was incubated with 2 nM of USP1/UAF1 in modified HEPES buffer pH 8.0 for 15 minutes at RT. The reaction was initiated by addition of 500 nM of Ubiquitin Rhodamine 110 (R&D, U-555-050) for kinetic reading. Slope change of fluorescence intensity was read spectrofluorimetrically at 485 nm/535 nm.

Chain of Human recombinant USP1/UAF1 (O94782 whole entry): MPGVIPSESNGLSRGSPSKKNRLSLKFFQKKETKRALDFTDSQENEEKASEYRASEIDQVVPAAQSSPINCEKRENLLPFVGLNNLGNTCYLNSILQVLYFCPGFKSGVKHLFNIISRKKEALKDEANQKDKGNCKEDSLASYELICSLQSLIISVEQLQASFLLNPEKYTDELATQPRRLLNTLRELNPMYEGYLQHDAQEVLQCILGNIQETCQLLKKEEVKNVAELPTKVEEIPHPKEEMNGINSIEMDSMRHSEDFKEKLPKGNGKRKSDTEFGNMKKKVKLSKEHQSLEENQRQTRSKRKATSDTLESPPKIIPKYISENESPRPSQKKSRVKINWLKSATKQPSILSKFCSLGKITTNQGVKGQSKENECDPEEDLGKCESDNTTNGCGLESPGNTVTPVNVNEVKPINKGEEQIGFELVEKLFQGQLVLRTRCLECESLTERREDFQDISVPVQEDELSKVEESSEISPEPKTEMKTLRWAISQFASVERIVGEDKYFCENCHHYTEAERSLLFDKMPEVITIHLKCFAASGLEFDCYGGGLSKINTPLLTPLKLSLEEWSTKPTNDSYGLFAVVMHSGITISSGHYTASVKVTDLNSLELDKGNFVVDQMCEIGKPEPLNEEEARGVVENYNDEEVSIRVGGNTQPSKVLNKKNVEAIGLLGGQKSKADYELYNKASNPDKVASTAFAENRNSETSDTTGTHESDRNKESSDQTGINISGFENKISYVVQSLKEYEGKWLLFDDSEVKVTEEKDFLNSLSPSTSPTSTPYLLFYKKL
Chain of Human recombinant USP1/UAF1 (Q8TAF3 whole entry partner): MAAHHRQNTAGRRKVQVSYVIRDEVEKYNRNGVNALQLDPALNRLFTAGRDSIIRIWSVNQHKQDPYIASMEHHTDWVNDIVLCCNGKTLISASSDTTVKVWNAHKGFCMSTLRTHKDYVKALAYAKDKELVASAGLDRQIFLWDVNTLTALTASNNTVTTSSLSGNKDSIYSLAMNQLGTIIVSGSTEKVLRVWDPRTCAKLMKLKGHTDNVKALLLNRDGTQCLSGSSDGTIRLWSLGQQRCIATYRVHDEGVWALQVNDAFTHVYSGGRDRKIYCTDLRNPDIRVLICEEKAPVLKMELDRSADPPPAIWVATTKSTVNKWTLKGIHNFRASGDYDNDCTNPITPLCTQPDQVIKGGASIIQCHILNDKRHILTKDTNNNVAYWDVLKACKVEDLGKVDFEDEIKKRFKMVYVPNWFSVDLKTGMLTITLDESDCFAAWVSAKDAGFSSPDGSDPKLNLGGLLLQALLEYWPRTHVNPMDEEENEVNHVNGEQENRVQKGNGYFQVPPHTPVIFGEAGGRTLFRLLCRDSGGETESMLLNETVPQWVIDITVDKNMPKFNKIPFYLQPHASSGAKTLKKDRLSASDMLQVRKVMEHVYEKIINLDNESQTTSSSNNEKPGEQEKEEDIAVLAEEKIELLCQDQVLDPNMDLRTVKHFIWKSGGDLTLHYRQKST

IC50 (MDA-MB-436 cells) [nM] | Structure (SMILES) | IC50 (MDA-MB-436 cells; Homo sapiens, 168 h) [nM] | IC50 [1] [nM]
 | COc1ncnc(C2CC2)c1-c1nn(C)c2c1CN(c1ccc(-c3nc(C(F)(F)F)cn3C(C)C)cn1)CC2 [Example 10, 3-(4-cyclopropyl-6-methoxypyrimidin-5-yl)-5-(5-(1-isopropyl-4-(trifluoromethyl)-1H-imidazol-2-yl)pyridin-2-yl)-1-methyl-4,5,6,7-tetrahydro-1H-pyrazolo[4,3-c]pyridine] | < 50 | < 50
 | COc1ncnc(C2CC2)c1-c1nn(C)c2c1CN(c1ncc(-c3nc(C(F)(F)F)cn3C)cn1)CC2 [Example 27, 3-(4-cyclopropyl-6-methoxypyrimidin-5-yl)-1-methyl-5-(5-(1-methyl-4-(trifluoromethyl)-1H-imidazol-2-yl)pyrimidin-2-yl)-4,5,6,7-tetrahydro-1H-pyrazolo[4,3-c]pyridine] | < 50 | < 50
 | CCn1cc(C(F)(F)F)nc1-c1ccc(N2CCc3c(c(-c4c(OC)ncnc4C4CC4)nn3C)C2)nc1 [Example 25, 3-(4-cyclopropyl-6-methoxypyrimidin-5-yl)-5-(5-(1-ethyl-4-(trifluoromethyl)-1H-imidazol-2-yl)pyridin-2-yl)-1-methyl-4,5,6,7-tetrahydro-1H-pyrazolo[4,3-c]pyridine] | < 50 | < 50
 | COc1ncnc(C2CC2)c1-c1nn(C)c2c1CN(c1ccc(-c3nc(C(F)(F)F)cn3C)nn1)CC2 [Example 29, 3-(4-cyclopropyl-6-methoxypyrimidin-5-yl)-1-methyl-5-(6-(1-methyl-4-(trifluoromethyl)-1H-imidazol-2-yl)pyridazin-3-yl)-4,5,6,7-tetrahydro-1H-pyrazolo[4,3-c]pyridine] | 50 to 1000 | 50 to 1000
 | COc1ncnc(C2CC2)c1-c1nn(C)c2c1CN(c1cnc(-c3nc(C(F)(F)F)cn3C)nc1)CC2 [Example 26, 3-(4-cyclopropyl-6-methoxypyrimidin-5-yl)-1-methyl-5-(2-(1-methyl-4-(trifluoromethyl)-1H-imidazol-2-yl)pyrimidin-5-yl)-4,5,6,7-tetrahydro-1H-pyrazolo[4,3-c]pyridine] | 50 to 1000 | 50 to 1000
 | COc1ncnc(C2CC2)c1-c1nn(C(F)F)c2c1CN(c1ccc(-c3nc(C(F)(F)F)cn3C)cc1)CC2 [Example 9, 3-(4-cyclopropyl-6-methoxypyrimidin-5-yl)-1-(difluoromethyl)-5-(4-(1-methyl-4-(trifluoromethyl)-1H-imidazol-2-yl)phenyl)-4,5,6,7-tetrahydro-1H-pyrazolo[4,3-c]pyridine] | < 50 | < 50
50 to 1000 | COc1ncnc(C2CC2)c1-c1nn(C)c2c1CN(c1ccc(-n3nc(C(F)(F)F)cc3C)cn1)CC2 [Example 15, 3-(4-cyclopropyl-6-methoxypyrimidin-5-yl)-1-methyl-5-(5-(5-methyl-3-(trifluoromethyl)-1H-pyrazol-1-yl)pyridin-2-yl)-4,5,6,7-tetrahydro-1H-pyrazolo[4,3-c]pyridine] |  | < 50
 | [2H]C([2H])([2H])n1nc(-c2c(OC)ncnc2C2CC2)c2c1CCN(c1ccc(-c3nc(C(F)(F)F)cn3C(C)C)cc1)C2 [Example 4, 3-(4-cyclopropyl-6-methoxypyrimidin-5-yl)-5-(4-(1-isopropyl-4-(trifluoromethyl)-1H-imidazol-2-yl)phenyl)-1-(methyl-d3)-4,5,6,7-tetrahydro-1H-pyrazolo[4,3-c]pyridine] | < 50 | < 50
 | [2H]C([2H])([2H])n1nc(-c2c(OC)ncnc2C2CC2)c2c1CCN(c1ccc(-c3nc(C(F)(F)F)cn3C)cn1)C2 [Example 18, 3-(4-cyclopropyl-6-methoxypyrimidin-5-yl)-1-(methyl-d3)-5-(5-(1-methyl-4-(trifluoromethyl)-1H-imidazol-2-yl)pyridin-2-yl)-4,5,6,7-tetrahydro-1H-pyrazolo[4,3-c]pyridine] | < 50 | < 50
